In patent US9593149B2, “Amylin and calcitonin receptor agonist” (Novo Nordisk A/S, priority 2014, dated 2017):
In brackets after ≈: the same amount, converted by molar mass. Numbered stars: 1 amine (or outer) side, 2 acyl side, 3 side chain; on linkers, the order of the positions; unused ones are H or OH. Peptide text beside a SMILES is read from it. * marks the point of attachment. C20 diacid = O=C(O)CCCCCCCCCCCCCCCCCCC(=O)*; C18 diacid = O=C(O)CCCCCCCCCCCCCCCCC(=O)*; γGlu = O=C(O)[C@H](CCC(=O)[*:2])N[*:1]

Assay: Assay (IV) determination of solubility
Type: physicochemical
Description: Assay (IV)—Determination of Solubility
The mimylin peptide was dissolved in water at ˜500 nmol/ml and mixed 1:1 with a series of buffers (100 mM glycylglycine pH 3.0, 100 mM glycylglycine pH 4.0, 100 mM glycylglycine pH 5.0, 100 mM bistrispropane pH 6.0, 100 mM bistrispropane pH 6.5, 100 mM bistrispropane pH 7.0, 100 mM bistrispropane pH 7.5, 100 mM bistrispropane pH 8.0).

SMILES | Solubility (pH 3.0) | Solubility (pH 4.0) | solubility at 18 h (pH 5.0) [µM] | solubility at 18 h (pH 6.0) [µM] | solubility at 18 h (pH 6.5) [µM] | solubility at 18 h (pH 7.0) [µM] | solubility at 18 h (pH 7.5) [µM] | solubility at 18 h (pH 8.0) [µM] | Solubility (pH 6.0) | Solubility (pH 6.5) | Solubility (pH 7.0) | Solubility (pH 7.5) | Solubility (pH 8.0) | Solubility (pH 5.0)
CC(C)C[C@H](NC(=O)CNC(=O)[C@H](CO)NC(=O)[C@H](CC(C)C)NC(=O)[C@H](CCC(=O)O)NC(=O)CC[C@H](NC(=O)CCCCCCCCCCCCCCCCCCC(=O)O)C(=O)O)C(=O)N[C@@H](CO)C(=O)N[C@H](C(=O)N[C@@H](CC(C)C)C(=O)N[C@H](C(=O)N[C@@H](CC(C)C)C(=O)NCC(=O)N[C@@H](CCCNC(=N)N)C(=O)N[C@@H](CC(C)C)C(=O)N[C@@H](CO)C(=O)N[C@@H](CCC(N)=O)C(=O)N[C@@H](CCC(=O)O)C(=O)N[C@@H](CC(C)C)C(=O)N[C@@H](Cc1cnc[nH]1)C(=O)N[C@@H](CCC(=O)O)C(=O)N[C@@H](CC(C)C)C(=O)N[C@@H](CCC(N)=O)C(=O)N[C@H](C(=O)N[C@@H](Cc1ccc(O)cc1)C(=O)N1CCC[C@H]1C(=O)N[C@@H](CCCNC(=N)N)C(=O)N[C@H](C(=O)NCC(=O)N[C@H](C(=O)NCC(=O)N[C@@H](CO)C(=O)NCC(=O)N[C@H](C(=O)N[C@@H](Cc1ccc(O)cc1)C(N)=O)[C@@H](C)O)[C@@H](C)O)[C@@H](C)O)[C@@H](C)O)C(C)C)[C@@H](C)O [compound 129, [N-terminal(C20 diacid-gGlu), 2L, 4G, 8L, 9V, 15Q, 21Q, 23Y, 27G, 30S, 31G, 32T, 33Y]mimylin] ({C20 diacid-γGlu}-ELSGLSTLVLGRLSQELHELQTYPRTGTGSGTY-NH2) | ≧200 μM | ≧200 μM | 1 (≈ 4.02 µg/mL) | 1 (≈ 4.02 µg/mL) | 1 (≈ 4.02 µg/mL) | 1 (≈ 4.02 µg/mL) | 52 (≈ 209 µg/mL) | 185 (≈ 743 µg/mL) | – | – | – | – | – | –
CC(C)C[C@H](NC(=O)[C@H](C)NC(=O)[C@H](C)NC(=O)[C@@H](NC(=O)[C@H](CO)NC(=O)[C@H](CC(C)C)NC(=O)[C@H](CCC(=O)O)NC(=O)[C@H](CO)NC(=O)[C@H](C)NC(=O)CC[C@H](NC(=O)CCCCCCCCCCCCCCCCCCC(=O)O)C(=O)O)[C@@H](C)O)C(=O)NCC(=O)N[C@@H](CCCNC(=N)N)C(=O)N[C@@H](CC(C)C)C(=O)N[C@@H](CO)C(=O)N[C@@H](C)C(=O)N[C@@H](CCC(=O)O)C(=O)N[C@@H](CC(C)C)C(=O)N[C@@H](Cc1cnc[nH]1)C(=O)N[C@@H](CCC(=O)O)C(=O)N[C@@H](CC(C)C)C(=O)N[C@@H](CO)C(=O)N[C@H](C(=O)N[C@@H](Cc1ccc(O)cc1)C(=O)N1CCC[C@H]1C(=O)N[C@@H](CCCNC(=N)N)C(=O)N[C@H](C(=O)N[C@@H](CCC(=O)O)C(=O)N[C@H](C(=O)NCC(=O)N[C@@H](CO)C(=O)NCC(=O)N[C@@H](CO)C(=O)N1CCC[C@H]1C(N)=O)[C@@H](C)O)[C@@H](C)O)[C@@H](C)O [compound 82, [N-terminal(C20 diacid-gGlu), des1, 21S, 23Y, 30S, 31G]mimylin] ({C20 diacid-γGlu}-ASELSTAALGRLSAELHELSTYPRTETGSGSP-NH2) | ≧200 μM | ≧200 μM | 1 (≈ 3.74 µg/mL) | – | – | – | – | – | ≧200 μM | ≧200 μM | ≧200 μM | ≧200 μM | ≧200 μM | –
CC(C)C[C@H](NC(=O)CNC(=O)[C@H](CO)NC(=O)[C@H](C)NC(=O)CC[C@H](NC(=O)CCCCCCCCCCCCCCCCCCC(=O)O)C(=O)O)C(=O)N[C@@H](CO)C(=O)N[C@H](C(=O)N[C@@H](C)C(=O)N[C@@H](C)C(=O)N[C@@H](CC(C)C)C(=O)NCC(=O)N[C@@H](CCCNC(=N)N)C(=O)N[C@@H](CC(C)C)C(=O)N[C@@H](CO)C(=O)N[C@@H](C)C(=O)N[C@@H](CCC(=O)O)C(=O)N[C@@H](CC(C)C)C(=O)N[C@@H](Cc1cnc[nH]1)C(=O)N[C@@H](CCC(=O)O)C(=O)N[C@@H](CC(C)C)C(=O)N[C@@H](C)C(=O)N[C@H](C(=O)N[C@@H](Cc1ccc(O)cc1)C(=O)N1CCC[C@H]1C(=O)N[C@@H](CCCNC(=N)N)C(=O)N[C@H](C(=O)N[C@@H](CCC(=O)O)C(=O)N[C@H](C(=O)NCC(=O)N[C@@H](CO)C(=O)NCC(=O)N[C@@H](CO)C(=O)N1CCC[C@H]1C(N)=O)[C@@H](C)O)[C@@H](C)O)[C@@H](C)O)[C@@H](C)O [compound 79, [N-terminal(C20 diacid-gGlu), des1, 4G, 23Y, 30S, 31G]mimylin] ({C20 diacid-γGlu}-ASGLSTAALGRLSAELHELATYPRTETGSGSP-NH2) | ≧200 μM | ≧200 μM | – | – | – | – | – | – | ≧200 μM | ≧200 μM | ≧200 μM | ≧200 μM | ≧200 μM | ≧200 μM
CC(C)C[C@H](NC(=O)[C@H](CCC(=O)O)NC(=O)[C@H](Cc1cnc[nH]1)NC(=O)[C@H](CC(C)C)NC(=O)[C@H](CCC(=O)O)NC(=O)[C@H](C)NC(=O)[C@H](CO)NC(=O)[C@H](CC(C)C)NC(=O)[C@H](CCCNC(=N)N)NC(=O)CNC(=O)[C@H](CC(C)C)NC(=O)[C@@H](NC(=O)[C@H](C)NC(=O)[C@@H](NC(=O)[C@@H](NC(=O)[C@H](CC(C)C)NC(=O)[C@H](CCC(=O)O)NC(=O)[C@H](CO)NC(=O)[C@H](C)NC(=O)CC[C@H](NC(=O)CCCCCCCCCCCCCCCCC(=O)O)C(=O)O)[C@@H](C)O)[C@@H](C)O)C(C)C)C(=O)N[C@@H](C)C(=O)N[C@H](C(=O)N[C@@H](CC(C)C)C(=O)N1CCC[C@H]1C(=O)N[C@@H](CCCNC(=N)N)C(=O)N[C@H](C(=O)N[C@@H](CCC(=O)O)C(=O)N[C@H](C(=O)NCC(=O)N[C@H](C(=O)NCC(=O)N[C@H](C(=O)N1CCC[C@H]1C(N)=O)[C@@H](C)O)[C@@H](C)O)[C@@H](C)O)[C@@H](C)O)[C@@H](C)O [compound 95, [N-terminal(C18 diacid-gGlu), des1, 6T, 9V, 30T, 31G, 32T]mimylin] ({C18 diacid-γGlu}-ASELTTAVLGRLSAELHELATLPRTETGTGTP-NH2) | ≧200 μM | ≧200 μM | – | – | – | – | – | – | ≧200 μM | ≧200 μM | ≧200 μM | ≧200 μM | ≧200 μM | ≧200 μM
CC(C)C[C@H](NC(=O)[C@H](C)NC(=O)[C@H](C)NC(=O)[C@@H](NC(=O)[C@H](CO)NC(=O)[C@H](CC(C)C)NC(=O)[C@H](CCC(=O)O)NC(=O)[C@H](CO)NC(=O)[C@H](C)NC(=O)CC[C@H](NC(=O)CCCCCCCCCCCCCCCCCCC(=O)O)C(=O)O)[C@@H](C)O)C(=O)NCC(=O)N[C@@H](CCCNC(=N)N)C(=O)N[C@@H](CC(C)C)C(=O)N[C@@H](CO)C(=O)N[C@@H](C)C(=O)N[C@@H](CCC(=O)O)C(=O)N[C@@H](CC(C)C)C(=O)N[C@@H](Cc1cnc[nH]1)C(=O)N[C@@H](CCC(=O)O)C(=O)N[C@@H](CC(C)C)C(=O)N[C@@H](C)C(=O)N[C@H](C(=O)N[C@@H](CC(C)C)C(=O)N1CCC[C@H]1C(=O)N[C@@H](CCCNC(=N)N)C(=O)N[C@H](C(=O)N[C@@H](CCC(=O)O)C(=O)N[C@H](C(=O)NCC(=O)N[C@@H](CO)C(=O)NCC(=O)N[C@@H](CO)C(=O)NCC(N)=O)[C@@H](C)O)[C@@H](C)O)[C@@H](C)O [compound 64, [N-terminal(C20 diacid-gGlu), des1, 30S, 31G, 33G]mimylin] ({C20 diacid-γGlu}-ASELSTAALGRLSAELHELATLPRTETGSGSG-NH2) | ≧200 μM | ≧200 μM | – | – | – | – | – | – | ≧200 μM | ≧200 μM | ≧200 μM | ≧200 μM | ≧200 μM | ≧200 μM
